For the test, the target named is T1, human FXR (NR1H4) (Homo sapiens, UniProt Q96RI1).
T1 sequence (Q96RI1 1-486): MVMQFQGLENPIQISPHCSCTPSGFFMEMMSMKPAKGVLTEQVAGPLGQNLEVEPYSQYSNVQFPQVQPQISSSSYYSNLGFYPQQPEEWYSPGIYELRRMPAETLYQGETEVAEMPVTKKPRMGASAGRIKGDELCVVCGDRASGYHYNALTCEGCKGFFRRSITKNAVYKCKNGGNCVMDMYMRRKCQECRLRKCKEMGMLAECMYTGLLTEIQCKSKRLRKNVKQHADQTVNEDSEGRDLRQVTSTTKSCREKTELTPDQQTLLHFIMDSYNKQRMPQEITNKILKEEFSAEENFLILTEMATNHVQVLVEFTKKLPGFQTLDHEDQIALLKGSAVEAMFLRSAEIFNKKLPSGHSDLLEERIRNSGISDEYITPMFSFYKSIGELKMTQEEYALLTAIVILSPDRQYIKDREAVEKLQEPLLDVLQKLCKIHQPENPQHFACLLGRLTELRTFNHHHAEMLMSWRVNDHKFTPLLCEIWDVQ
Briefly: Human FXR (NR1H4) Assay: Gal4 promoter driven luciferase reporter transactivation in CHO cells (Indigo Bioscience kit IB00601). Type of test: cell-based. To be noted: for Emax: CHO, efficacy normalized to CDCA set as 100%, read-out: Efficacy (%); for EC50: potency range, Human FXR (NR1H4) reporter assay in CHO cells, read-out: EC50. The gist of the method: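 CHO reporter cells expressing human NR1H4 with luciferase driven by an FXR-responsive promoter (Gal4 system), run per manufacturer's kit. Compounds applied to plated cells, then incubated a further 22 hours at 37° C. Luciferase luminescence read after detection reagent as a surrogate of FXR activation, giving potency and efficacy.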
For orientation: Reporter assays use an easily measured gene product as a stand-in for the process of interest.

One may read the EC50 as the concentration giving half of the maximal effect.

Where only a bound is given, the exact number is not on record here.

For the compound `CC(C)(C)c1ccc(C(=O)NC(=O)N2C3CCC2CC(OCc2c(-c4c(Cl)cccc4Cl)noc2C2CC2)C3)cc1` (stereo not drawn) [Example 806], the Emax worked out at 5% and the EC50 was in the range of 0.01 to 0.1 µM.

For the compound `O=C(O)c1ccc(NC(=O)N2C3CCC2CC(OCc2c(-c4ccccc4C(F)(F)F)noc2C2CC2)C3)c(F)c1` (stereo not drawn) [Example 807], the Emax came to 42% and the concentration for a half-maximal effect (EC50) lay in the range of 0.01 to 0.1 µM.

Take `O=C(O)c1ccc(NC(=O)N2C3CCC2CC(OCc2c(-c4c(F)cccc4F)noc2C2CC2)C3)c(F)c1` (stereo not drawn) [Example 808]: the Emax was 32% and the EC50 was in the range of 0.01 to 0.1 µM.

Take `O=C(O)c1ccc(NC(=O)N2C3CCC2CC(OCc2c(-c4ccccc4C4CC4)noc2C2CC2)C3)c(F)c1` (stereo not drawn) [Example 809]: the Emax came out at 43% and the EC50 is 0.01 to 0.1 µM.

`CCOc1cc(C(=O)O)ccc1NC(=O)N1C2CCC1CC(OCc1c(-c3c(F)cccc3F)noc1C1CC1)C2` (stereo not drawn) [Example 810]: the Emax came to 64% and the EC50 was 0.01 to 0.1 µM.

With `CCOc1cc(C(=O)O)ccc1NC(=O)N1C2CCC1CC(OCc1c(-c3ccccc3C3CC3)noc1C1CC1)C2` (stereo not drawn) [Example 811], the Emax was determined as 66% and the EC50 was 0.01 to 0.1 µM.

Take `CCOc1cc(C(=O)O)ccc1NC(=O)N1C2CCC1CC(OCc1c(-c3ccccc3C(F)(F)F)noc1C1CC1)C2` (stereo not drawn) [Example 812]: the Emax came out at 102% and the EC50 was 0.01 to 0.1 µM.

With `CCOc1cc(C(=O)O)ccc1NC(=O)N1C2CCC1CC(OCc1c(C3CCC4(CC3)CC4)noc1C1CC1)C2` (stereo not drawn) [Example 813], the Emax turned out to be 16% and the EC50 lay in the range of 0.01 to 0.1 µM.

In the case of `O=C(O)c1ccc(NC(=O)N2C3CCC2CC(OCc2c(-c4ccccc4C4CC4)noc2C2CC2)C3)cc1-c1ccccc1` (stereo not drawn) [Example 814], the Emax was 112% and the EC50 is 0.01 to 0.1 µM.

For `O=C(O)c1ccc(NC(=O)N2C3CCC2CC(OCc2c(-c4ccccc4C(F)(F)F)noc2C2CC2)C3)cc1-c1ccccc1` (stereo not drawn) [Example 815], the Emax amounted to 36% and the EC50 is 0.01 to 0.1 µM.

For `O=C(O)c1ccc(NC(=O)N2C3CCC2CC(OCc2c(-c4c(F)cccc4F)noc2C2CC2)C3)cc1-c1ccccc1` (stereo not drawn) [Example 816], the Emax stood at 36% and the 50% effective concentration (EC50) lay within 0.01 to 0.1 µM.

Consider `O=C(O)c1ccc(NC(=O)N2C3CCC2CC(OCc2c(-c4ccccc4C(F)(F)F)noc2C2CC2)C3)c(C(F)(F)F)c1` (stereo not drawn) [Example 817], for which the Emax is 20% and the EC50 was in the range of 0.01 to 0.1 µM.

As to `O=C(O)c1ccc(NC(=O)N2C3CCC2CC(OCc2c(-c4c(F)cccc4F)noc2C2CC2)C3)c(C(F)(F)F)c1` (stereo not drawn) [Example 818], the Emax is 25% and the EC50 is 0.01 to 0.1 µM.

For the compound `O=C(O)c1ccc(NC(=O)N2C3CCC2CC(OCc2c(C4CCC5(CC4)CC5)noc2C2CC2)C3)c(C(F)(F)F)c1` (stereo not drawn) [Example 819], the Emax was 11% and the EC50 fell in the range of 0.01 to 0.1 µM.

For the compound `O=C(O)c1ccc(NC(=O)N2C3CCC2CC(OCc2c(-c4ccccc4C4CC4)noc2C2CC2)C3)c(C(F)(F)F)c1` (stereo not drawn) [Example 820], the Emax stood at 13% and the 50% effective concentration (EC50) lay within 0.01 to 0.1 µM.

Regarding `COC(=O)c1ccc(NC(=O)N2C3CCC2CC(OCc2c(-c4ccccc4OC(F)(F)F)noc2C2CC2)C3)cc1OC(F)(F)F` (stereo not drawn) [Example 821], the Emax turned out to be 75% and the EC50 was 0.01 to 0.1 µM.

For the compound `O=C(O)c1ccc(NC(=O)N2C3CCC2CC(OCc2c(-c4ccccc4OC(F)(F)F)noc2C2CC2)C3)cc1OC(F)(F)F` (stereo not drawn) [Example 822], the Emax was determined as 76% and the concentration giving a half-maximal response (EC50) was less than 0.01 µM.

Regarding `CCOc1cc(C(=O)O)ccc1NC(=O)N1C2CCC1CC(OCc1c(-c3ccccc3OC(F)(F)F)noc1C1CC1)C2` (stereo not drawn) [Example 823], the Emax stood at 112% and the concentration giving a half-maximal response (EC50) fell in the range of 0.01 to 0.1 µM.

As to `CCOC(=O)c1ccc(NC(=O)N2C3CCC2CC(NCc2c(-c4c(Cl)cccc4Cl)noc2C2CC2)C3)cc1` (stereo not drawn) [Example 825], the Emax came out at 104% and the EC50 fell in the range of 0.01 to 0.1 µM.

As to `O=C(O)c1ccc(NC(=O)N2C3CCC2CC(NCc2c(-c4c(Cl)cccc4Cl)noc2C2CC2)C3)cc1` (stereo not drawn) [Example 826], the Emax came out at 63% and the EC50 is 0.01 to 0.1 µM.

Take `CCOC(=O)c1cccc(NC(=O)N2C3CCC2CC(NCc2c(-c4c(Cl)cccc4Cl)noc2C2CC2)C3)c1` (stereo not drawn) [Example 827]: the Emax came to 110% and the EC50 is less than 0.01 µM.

On to `O=C(O)c1cccc(NC(=O)N2C3CCC2CC(NCc2c(-c4c(Cl)cccc4Cl)noc2C2CC2)C3)c1` (stereo not drawn) [Example 828], for which the Emax was found to be 59% and the 50% effective concentration (EC50) lay within 0.01 to 0.1 µM.

Regarding `CCOC(=O)c1ccc(NC(=O)N2C3CCC2CC(NCc2c(-c4c(Cl)cccc4Cl)noc2C2CC2)C3)c(OCC)c1` (stereo not drawn) [Example 829], the Emax came to 57% and the EC50 was 0.01 to 0.1 µM.

`CCOc1cc(C(=O)O)ccc1NC(=O)N1C2CCC1CC(NCc1c(-c3c(Cl)cccc3Cl)noc1C1CC1)C2` (stereo not drawn) [Example 830]: the Emax is 82% and the EC50 was less than 0.01 µM.

As for `CCOC(=O)c1ccc(NC(=O)N2C3CCC2CC(NCc2c(-c4ccccc4OC(F)(F)F)noc2C2CC2)C3)c(OCC)c1` (stereo not drawn) [Example 831], the Emax worked out at 15% and the EC50 lay within 0.01 to 0.1 µM.

For the compound `CCOc1cc(C(=O)O)ccc1NC(=O)N1C2CCC1CC(NCc1c(-c3ccccc3OC(F)(F)F)noc1C1CC1)C2` (stereo not drawn) [Example 832], the Emax is 50% and the EC50 lay within 0.01 to 0.1 µM.

As for `COC(=O)c1ccc2c(c1)CN(C(=O)N1C3CCC1CC(OCc1c(-c4ccccc4OC(F)(F)F)noc1C1CC1)C3)CC2` (stereo not drawn) [Example 833], the Emax was 80% and the EC50 is more than 1 µM.

Regarding `O=C(O)c1ccc2c(c1)CN(C(=O)N1C3CCC1CC(OCc1c(-c4ccccc4OC(F)(F)F)noc1C1CC1)C3)CC2` (stereo not drawn) [Example 834], the Emax was 102% and the concentration for a half-maximal effect (EC50) lay within 0.1 to 1 µM.

As for `O=C(Nc1cncc(-c2ccccc2)c1)N1C2CCC1CC(OCc1c(-c3c(Cl)cccc3Cl)noc1C1CC1)C2` (stereo not drawn) [Example 835], the Emax is 223% and the half-maximal effective concentration (EC50) was less than 0.01 µM.

For `O=C(Nc1cccc(-c2ccncc2)c1)N1C2CCC1CC(OCc1c(-c3c(Cl)cccc3Cl)noc1C1CC1)C2` (stereo not drawn) [Example 836], the Emax came to 135% and the EC50 was less than 0.01 µM.

Values taken from patent US10597391B2, “Urea-containing isoxazole derivatives as FXR agonists and methods of use thereof” (Enanta Pharmaceuticals, Inc., priority 2016, dated 2020).
